# Data reported in the supplement of paper PMC10307832.
# Experiments:
# Assay in all cases: relative viability (nuclei count vs DMSO), 5 days (fraction); higher = more cells survive
# [1] = compound: CS(=O)(=O)c1ccc(C(=O)Nc2ccc(Cl)c(-c3ccccn3)c2)c(Cl)c1 [Vismodegib] + Cc1nc(Nc2ncc(C(=O)Nc3c(C)cccc3Cl)s2)cc(N2CCN(CCO)CC2)n1 [Dasatinib] (partner 0.075 µM)
# Method in brief: (§1)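 Lung cancer cell lines were pin-tool dosed in 1536-well plates on the day after seeding, with either a lone drug or a fixed anchor-drug dose plus five library-drug doses (not always all listed) in √10 steps. Nuclei were counted on 4× images after 5 days. Relative viability is the ratio of treated-well to vehicle-well nuclei counts, with each value a median of duplicate plates.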
# [2] = compound: N#CC[C@H](C1CCCC1)n1cc(-c2ncnc3[nH]ccc23)cn1 [Ruxolitinib] + O=C(CCCCCCC(=O)Nc1ccccc1)NO [Vorinostat] (partner 1 µM)
# Method in brief: as §1
# [3] = compound: N#CC[C@H](C1CCCC1)n1cc(-c2ncnc3[nH]ccc23)cn1 [Ruxolitinib] + CC(=O)Nc1cccc(-n2c(=O)n(C3CC3)c(=O)c3c(Nc4ccc(I)cc4F)n(C)c(=O)c(C)c32)c1 [Trametinib] (partner 0.02 µM)
# Method in brief: as §1
# [4] = compound: N#CC[C@H](C1CCCC1)n1cc(-c2ncnc3[nH]ccc23)cn1 [Ruxolitinib] + Cc1cc(Nc2cc(N3CCN(C)CC3)nc(Sc3ccc(NC(=O)C4CC4)cc3)n2)n[nH]1 [Tozasertib] (partner 0.1 µM)
# Method in brief: as §1
cell line,measurement,setting,value
UMC-11,relative viability,[1]; first compound 0.08 µM,0.434
same,relative viability,[1]; first compound 0.253 µM,0.471
same,relative viability,[1]; first compound 0.8 µM,0.423
same,relative viability,[1]; first compound 2.53 µM,0.444
same,relative viability,[1]; first compound 8 µM,0.418
same,relative viability,[2]; first compound 0.08 µM,0.362
same,relative viability,[2]; first compound 0.253 µM,0.384
same,relative viability,[2]; first compound 0.8 µM,0.452
same,relative viability,[2]; first compound 2.53 µM,0.48
same,relative viability,[2]; first compound 8 µM,0.386
same,relative viability,[3]; first compound 0.08 µM,0.823
same,relative viability,[3]; first compound 0.253 µM,0.703
same,relative viability,[3]; first compound 0.8 µM,0.872
same,relative viability,[3]; first compound 2.53 µM,1.03
same,relative viability,[3]; first compound 8 µM,0.653
same,relative viability,[4]; first compound 0.08 µM,0.206
same,relative viability,[4]; first compound 0.253 µM,0.206
same,relative viability,[4]; first compound 0.8 µM,0.203
same,relative viability,[4]; first compound 2.53 µM,0.214
same,relative viability,[4]; first compound 8 µM,0.2
